Experimental data: PubChem BioAssay (NCI)
“And” between values parts separate entries of the source, which are not always exact repeats. Equal entries are not always repeated.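 Briefly, cells in 96-well plates were exposed to five compound concentrations for 48 h, and endpoints were estimated by linear interpolation. GI50 = concentration required for 50% inhibition of growth. TGI: concentration producing complete growth inhibition.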

What was measured:
Assay in all cases: NCI tumour cell line growth inhibition, 48 h
[1] = test system: HL-60(TB) leukemia
[2] = test system: UACC-62 melanoma
[3] = test system: MDA-MB-435
[4] = test system: BT-549 breast
[5] = test system: RXF 393 renal
[6] = test system: HCC-2998 colon
[7] = test system: KM12 colon
[8] = test system: SF-295 CNS
[9] = test system: OVCAR-5 ovarian
[10] = test system: LOX IMVI melanoma

SMILES	TGI [1]	TGI [2]	TGI [3]	TGI [4]	TGI [5]	TGI [6]	TGI [7]	TGI [8]	TGI [9]	TGI [10]	GI50 [1]	GI50 [2]	GI50 [3]	GI50 [4]	GI50 [5]	GI50 [6]	GI50 [7]	GI50 [8]	GI50 [9]
O=[N+]([O-])c1ccc2nc(-c3ccccn3)c(-c3ccccn3)nc2c1	> 100 µM	> 100 µM	> 100 µM	> 100 µM	> 100 µM	> 100 µM	> 100 µM	> 100 µM	> 100 µM	–	–	–	–	–	–	–	–	–	–
CN(C)c1nc(N(C)C)nc(N(C)C23CC4CC(CC(C4)C2)C3)n1	–	> 100 µM	> 100 µM	63.4 µM	67.9 µM	85.3 µM	> 100 µM	> 100 µM	> 100 µM	–	–	–	–	–	–	–	–	–	–
Clc1ccc(Cc2nc3ccccc3nc2-c2cccc(Br)c2)cc1	6.49 µM	4.01 µM	4.71 µM	9.93 µM	6.26 µM	3.36 µM	33.7 µM	31.2 µM	16.6 µM	3.73 µM	–	–	–	–	–	–	–	–	–
Cc1cc(=O)n2nc(SCc3ccccc3)sc2n1	> 100 µM	> 100 µM	> 100 µM	> 100 µM	> 100 µM	> 100 µM	> 100 µM	> 100 µM	> 100 µM	> 100 µM	–	–	–	–	–	–	–	–	–
Nc1cccc2c1C(=O)c1cccc(N)c1C2=O	–	> 100 µM	–	–	> 100 µM	> 100 µM	> 100 µM	–	> 100 µM	> 100 µM	–	–	–	–	–	–	–	–	–
Nc1nc(-c2ccccc2N=NN2CCCC2)nc2ccccc12	–	3.77 µM	6.7 µM	24.1 µM	20.4 µM	–	7.36 µM	10.5 µM	4.66 µM	3.77 µM	–	–	–	–	–	–	–	–	–
CCOP(=O)(OCC)C(Nc1cccc(F)c1)c1ccccc1 (centres undefined)	55.3 µM	> 100 µM	> 100 µM	> 100 µM	> 100 µM	> 100 µM	> 100 µM	> 100 µM	–	> 100 µM	–	–	–	–	–	–	–	–	–
Cc1cc(/C=C\c2ccc3ccccc3[n+]2C)c(O)c2ncccc12	–	2.62 µM	0.523 µM	4.63 µM	6.03 µM	0.593 µM	1.34 µM	1.44 µM	6.19 µM	–	0.125 µM	0.207 µM	0.0875 µM	0.26 µM	1.55 µM	0.112 µM	0.182 µM	0.0827 µM	0.829 µM
C/C=C\C(CC(=O)NCCc1cn(C(=O)OCc2ccccc2)c2ccccc12)CC(=O)OC (centres undefined)	–	> 100 µM	> 100 µM	> 100 µM	> 100 µM	> 100 µM	> 100 µM	> 100 µM	> 100 µM	–	–	–	–	–	–	–	–	–	–
COc1nc(N(C)C)nc2c1n(C)c[n+]2C	> 100 µM	> 100 µM	> 100 µM	> 100 µM	> 100 µM	–	> 100 µM	> 100 µM	> 100 µM	> 100 µM	–	–	–	–	–	–	–	–	–
Cc1cc(O)c(C(C)C)cc1SC#N	> 100 µM	28.7 µM	27 µM	36.4 µM	29.1 µM	32.9 µM	31.4 µM	31.2 µM	–	32.6 µM	–	–	–	–	–	–	–	–	–
Cc1ccccc1-n1c(C)nc2c1C(=O)c1ccccc1C2=O	87.5 µM	> 100 µM	–	–	> 100 µM	> 100 µM	> 100 µM	> 100 µM	> 100 µM	–	–	–	–	–	–	–	–	–	–
[Cl][Pt+2][Cl].[NH-]C1CCCCC1[NH-] (centres undefined)	4.49 µM and 8.45 µM and 1.89 µM	43.4 µM and > 100 µM and 17.3 µM	–	–	> 100 µM	> 100 µM and 24.2 µM	> 100 µM	> 100 µM	78.4 µM and > 100 µM and 14.3 µM	> 59.3 µM	0.884 µM and 1.46 µM and 0.199 µM	11.7 µM and 10.1 µM and 1.47 µM	–	–	> 57.9 µM and 66.8 µM and > 28.6 µM	42.6 µM and 17.2 µM and 4.67 µM	80.6 µM and > 72.1 µM and 10.6 µM	6.32 µM and 5.35 µM and 1.06 µM	–
COc1ccc2c(c1)C(N)=C(c1ccccc1)C2=O	> 100 µM	> 100 µM	> 100 µM	> 100 µM	–	> 100 µM	> 100 µM	> 100 µM	> 100 µM	> 100 µM	–	–	–	–	–	–	–	–	–
O=[N+]([O-])c1ccc(S[C@@H]2[C@H]3c4c(-c5ccccc5)[nH]c(-c5ccccc5)c4[C@@H]2C[C@H]3Cl)cc1	24.3 µM	37.3 µM	27.8 µM	9.78 µM	4.3 µM	–	12.3 µM	> 100 µM	> 100 µM	15.4 µM	–	–	–	–	–	–	–	–	–
N/N=C1/C2CN3CCN(C2)CC1(c1ccc([N+](=O)[O-])cc1)C3	> 100 µM	> 100 µM	> 100 µM	> 100 µM	> 100 µM	–	> 100 µM	> 100 µM	> 100 µM	> 100 µM	–	–	–	–	–	–	–	–	–
COC1OC(Cc2nnc(C)o2)C(OCc2ccccc2)C(OCc2ccccc2)C1OCc1ccccc1 (centres undefined)	76.3 µM	32.3 µM	39.2 µM	83.1 µM	48.2 µM	–	42.3 µM	52.6 µM	> 100 µM	40.3 µM	–	–	–	–	–	–	–	–	–
COC(=O)C1CCC(=O)N1C(=O)Cc1ccc(OC)cc1 (centres undefined)	–	> 100 µM	–	–	–	–	> 100 µM	> 100 µM	> 100 µM	> 100 µM	–	–	–	–	–	–	–	–	–
OCC1OC(n2cnc3cncnc32)C(O)C1O (centres undefined)	1.73 µM	2.46 µM	–	–	3.9 µM	2.84 µM	6 µM	8.32 µM	4.02 µM	2.46 µM	–	–	–	–	–	–	–	–	–
N=c1oc2ccc3ccccc3c2cc1C(N)=O	> 100 µM	> 100 µM	> 100 µM	> 100 µM	> 100 µM	90.6 µM	63 µM	–	> 100 µM	> 100 µM	–	–	–	–	–	–	–	–	–
NC(=S)N/N=C\c1ccc(OCc2cccc(COc3ccc(/C=N/NC(N)=S)cc3)n2)cc1	> 100 µM	–	> 100 µM	12.2 µM	47.9 µM	–	> 100 µM	> 100 µM	52.1 µM	> 100 µM	–	–	–	–	–	–	–	–	–
Cc1ccc(C(C)(C)C[P+](C)(c2ccccc2)c2ccccc2)cc1	7.56 µM	61.4 µM	–	–	> 94.1 µM	> 70.3 µM	> 45.7 µM	> 85.2 µM	> 100 µM	37.8 µM	–	–	–	–	–	–	–	–	–
CC1(C)OCC(C(O)C2OC(C)(C)OC2C=O)O1 (centres undefined)	–	> 100 µM	> 100 µM	–	–	–	> 100 µM	> 100 µM	> 100 µM	> 100 µM	–	–	–	–	–	–	–	–	–
